Results from patent US11696913B2, “Prolonged ectoparasite-controlling agent for animal” (MITSUI CHEMICALS AGRO, INC., priority 2017, dated 2023).

What was measured:
[1] = tested on: Plutella xylostella; test: Insecticidal testing against diamondback moth; type: in vivo; settings: foliar, 144 h, concentration 100 ppm, cabbage leaf dip, third-stage larvae, after 6 days, read-out: pesticidal rate
Source text: Insecticidal Testing Against Diamondback Moth (Plutella xylostella)

[2] = tested on: Ctenocephalides felis; test: Ctenocephalides felis in-vitro feeding test with fleas (CTECFE oral); settings: 48 hours, read-out: insecticidal feeding activity; for pest or weed control at 0.16 ppm: dose 0.16 ppm in citrated cattle blood; for pest or weed control at 0.8 ppm: dose 0.8 ppm in citrated cattle blood; for pest or weed control at 4 ppm: dose 4 ppm in citrated cattle blood; for pest or weed control at 0.0064 ppm: dose 0.0064 ppm in citrated cattle blood; for pest or weed control at 0.032 ppm: dose 0.032 ppm in citrated cattle blood
In short: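 About 20 unfed adult cat fleas fed through parafilm on citrated cattle blood containing test substance (DMSO solution diluted in blood), held at about 37° C. Kill rate scored after 48 hours, 100% meaning all fleas dead.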

[3] = tested on: Spodoptera litura; test: Insecticidal testing against common cutworm; type: in vivo; settings: foliar, 144 h, concentration 100 ppm, cabbage leaf dip, second-stage larvae, after 6 days, read-out: pesticidal rate
Source text: Insecticidal Testing Against Common Cutworm (Spodoptera litura)

[4] = tested on: Dermacentor variabilis; test: In vitro contact test with adult hard ticks (Dermacentor variabilis); settings: read-out: acaricidal activity; for pest or weed control at 0.2 µg/cm2, 0.2 µg/cm2: dose 0.2 μg/cm^2, 48 h; for pest or weed control at 1 µg/cm2, 1 µg/cm2: dose 1 μg/cm^2, 48 h
In short: (§1)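 Adult R. sanguineus, I. ricinus, D. variabilis or A. americanum nymphs exposed in glass vials coated with compound from acetone (900 ppm gives 5 μg/cm^2). Held 48 h at room temperature (R. sanguineus) or 21° C., 85% rel. hum.; then heated at 45-50° C. ≤5 min, motionless or uncoordinated ticks scored dead/moribund.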

[5] = tested on: Ctenocephalides felis; test: In vitro contact test with fleas; settings: read-out: insecticidal activity; for pest or weed control at 0.2 µg/cm2, 0.2 µg/cm2: dose 0.2 μg/cm^2, dead or moribund fleas after 48 h; for pest or weed control at 1 µg/cm2, 1 µg/cm2: dose 1 μg/cm^2, dead or moribund fleas after 48 h; for pest or weed control at 0.04 µg/cm2, 0.04 µg/cm2: dose 0.04 μg/cm^2, dead or moribund fleas after 48 h
In short: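 Adult male and female cat fleas (5-10 per tube) placed in glass tubes coated with compound from acetone solution (900 ppm gives 5 μg/cm^2), kept at room temperature and ambient humidity. After 48 h, motionless or uncoordinated fleas scored dead or moribund; activity expressed as % dead or moribund.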

[6] = tested on: Laodelphax striatellus; test: Insecticidal testing against small brown planthopper; type: in vivo; settings: 144 h, concentration 100 ppm, sprayed rice seedlings, after 6 days, read-out: pesticidal rate
Protocol: Insecticidal Testing Against Small Brown Planthopper (Laodelphax striatellus)
An additional test was carried out with 10 small brown planthoppers by preparing an acetone solution of the testing compound diluted to a predetermined concentration, spraying the solution onto rice seedlings and air drying the rice seedlings. The medicament was all used as received. The rice seedlings were placed in a constant-temperature room at 25° C., and the survival rate was investigated after 6 days. The test was carried out by means of one group of 10 pests.

[7] = tested on: Rhipicephalus sanguineus; test: In vitro contact test with adult hard ticks (Rhipicephalus sanguineus); settings: read-out: acaricidal activity; for pest or weed control at 0.2 µg/cm2, 0.2 µg/cm2: dose 0.2 μg/cm^2, 48 h; for pest or weed control at 1 µg/cm2, 1 µg/cm2: dose 1 μg/cm^2, 48 h
In short: as §1

[8] = tested on: Rhipicephalus (Boophilus) microplus; test: In vitro injection test with Rhipicephalus (Boophilus) microplus (BOOPMI Inj); settings: 168 h, laid fertile eggs after 7 days, read-out: acaricidal activity; for pest or weed control at 0.00016 mg: dose 0.16 μg/animal injected; for pest or weed control at 0.0008 mg: dose 0.8 μg/animal injected; for pest or weed control at 32 ng: dose 0.032 μg/animal injected
In short: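 Test substance in DMSO; 1 μl injected into abdomen of each of 5 engorged adult female ticks, then held at 28° C., 85% rel. hum. Activity scored after 7 days from laying of fertile eggs: 100% = no eggs or all infertile, 0% = all eggs fertile.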

Row | Structure (SMILES) | pest or weed control at 100 ppm [1] | pest or weed control at 0.16 ppm [2] | pest or weed control at 0.8 ppm [2] | pest or weed control at 4 ppm [2] | pest or weed control at 100 ppm [3] | pest or weed control at 0.2 µg/cm2, 0.2 µg/cm2 [4] | pest or weed control at 1 µg/cm2, 1 µg/cm2 [4] | pest or weed control at 0.2 µg/cm2, 0.2 µg/cm2 [5] | pest or weed control at 1 µg/cm2, 1 µg/cm2 [5] | pest or weed control at 100 ppm [6] | pest or weed control at 0.2 µg/cm2, 0.2 µg/cm2 [7] | pest or weed control at 1 µg/cm2, 1 µg/cm2 [7] | pest or weed control at 0.00016 mg [8] | pest or weed control at 0.0008 mg [8] | pest or weed control at 0.0064 ppm [2] | pest or weed control at 0.032 ppm [2] | pest or weed control at 0.04 µg/cm2, 0.04 µg/cm2 [5] | pest or weed control at 32 ng [8]
1 | CN(C(=O)c1ccc(Cl)c(Cl)c1)c1cccc(C(=O)Nc2c(I)cc(C(F)(C(F)(F)F)C(F)(F)F)cc2C(F)(F)F)c1F [Compound 44] | ≥ 70% | 95% | 95% | 95% | ≥ 70% | 90% | 90% | 95% | 95% | ≥ 70% | 90% | 90% | 100% | 100% |  |  |  | 
2 | CC(C)c1ccc(C(=O)N(C)c2cccc(C(=O)Nc3c(I)cc(C(F)(C(F)(F)F)C(F)(F)F)cc3C(F)(F)F)c2F)cc1 [Compound 47] | ≥ 70% |  |  | 95% | ≥ 70% |  |  | 95% | 95% | ≥ 70% |  |  |  | 100% |  |  |  | 
3 | CN(C(=O)c1ccc(S(C)(=O)=O)cc1)c1cccc(C(=O)Nc2c(I)cc(C(F)(C(F)(F)F)C(F)(F)F)cc2C(F)(F)F)c1F [Compound 49] | ≥ 70% | 95% | 95% | 95% | ≥ 70% |  |  | 95% | 95% | ≥ 70% |  |  | 100% | 100% | 95% | 95% | 95% | 
4 | CSc1ccc(C(=O)N(C)c2cccc(C(=O)Nc3c(I)cc(C(F)(C(F)(F)F)C(F)(F)F)cc3C(F)(F)F)c2F)cc1 [Compound 53] | ≥ 70% | 95% | 95% | 95% | ≥ 70% | 90% | 90% | 95% | 95% | ≥ 70% |  |  | 100% | 100% | 95% | 95% | 95% | 
5 | CN(C(=O)c1ccc([N+](=O)[O-])cc1)c1cccc(C(=O)Nc2c(I)cc(C(F)(C(F)(F)F)C(F)(F)F)cc2C(F)(F)F)c1F [Compound 54] | ≥ 70% | 95% | 95% | 95% | ≥ 70% | 90% | 90% | 95% | 95% | ≥ 70% | 90% | 90% | 100% | 100% |  | 95% | 95% | 100%
6 | CN(C(=O)c1ccc(OC(F)(F)F)cc1)c1cccc(C(=O)Nc2c(I)cc(C(F)(C(F)(F)F)C(F)(F)F)cc2C(F)(F)F)c1F [Compound 61] | ≥ 70% |  | 95% | 95% | ≥ 70% |  |  | 95% | 95% | ≥ 70% |  |  | 100% | 100% |  |  |  | 
7 | CN(C(=O)c1ccc(F)cc1)c1cc(C(=O)Nc2c(Cl)cc(C(F)(C(F)(F)F)C(F)(F)F)cc2C(F)(F)F)ccc1F [Compound 83] | ≥ 70% | 95% | 95% | 95% | ≥ 70% |  |  | 95% | 95% | ≥ 70% |  |  | 100% | 100% |  | 95% | 95% | 
8 | CN(C(=O)c1ccc(C#N)cc1)c1cccc(C(=O)Nc2c(Br)cc(C(F)(C(F)(F)F)C(F)(F)F)cc2OC(F)(F)F)c1F [Compound 88] | ≥ 70% | 95% | 95% | 95% | ≥ 70% | 90% | 90% | 95% | 95% | ≥ 70% | 90% | 90% | 100% | 100% |  | 95% |  | 100%
9 | CN(C(=O)c1ccc(C(F)(F)F)nc1)c1cccc(C(=O)Nc2c(Br)cc(C(F)(C(F)(F)F)C(F)(F)F)cc2OC(F)(F)F)c1F [Compound 98] | ≥ 70% |  | 95% | 95% | ≥ 70% | 90% | 90% | 95% | 95% | ≥ 70% |  |  | 100% | 100% |  |  |  | 
10 | CN(C(=O)c1ccc(C(F)(F)F)nc1)c1cccc(C(=O)Nc2c(I)cc(C(F)(C(F)(F)F)C(F)(F)F)cc2OC(F)F)c1F [Compound 107] | ≥ 70% | 95% | 95% | 95% | ≥ 70% | 90% | 90% | 95% | 95% | ≥ 70% | 90% |  | 100% | 100% |  | 95% | 95% | 100%
11 | CN(C(=O)c1ccc(C(F)(F)F)nc1C(F)(F)F)c1cccc(C(=O)Nc2c(I)cc(C(F)(C(F)(F)F)C(F)(F)F)cc2C(F)(F)F)c1F [Compound 111] | ≥ 70% | 95% | 95% | 95% | ≥ 70% |  |  | 95% | 95% |  |  |  | 100% | 100% | 95% | 95% | 95% | 
12 | CN(C(=O)c1cnc(C(F)(F)F)nc1)c1cccc(C(=O)Nc2c(I)cc(C(F)(C(F)(F)F)C(F)(F)F)cc2C(F)(F)F)c1F [Compound 113] | ≥ 70% | 95% | 95% | 95% | ≥ 70% |  |  |  |  | ≥ 70% |  |  | 100% | 100% |  | 95% |  | 100%
